This passage reports IC50 results from US12239643B2, “Therapeutic agent for inflammatory diseases, autoimmune diseases, fibrotic diseases, and cancer diseases” (MEIJI SEIKA PHARMA CO., LTD., priority 2018, dated 2025).

In this assay the test system is PDE4. The assay can be described thus: Evaluation of PDE4 inhibitory activity, scintillation proximity assay. The format is biochemical. Conditions: scintillation proximity assay; read-out: PDE4 Inhibitory Activity (Evaluation 1; concentration for the inhibition rate of 50%). Put shortly: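 SPA with [2,8-3H]-cAMP and diluted PDE4 enzyme preparation in 50 mM Tris-HCl pH 7.4, 8.3 mM MgCl2, 1.7 mM EGTA, 3 mg/mL BSA, 120 min at room temperature. Product captured on ZnSO4-containing YSi-SPA beads, scintillation counted; IC50 from inhibition curves vs DMSO control and no-enzyme blank.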
A general note: Scintillation proximity formats need no separation of bound from free tracer.

With `CC(C)(O)COC(c1ccc(-c2nccs2)c2oc(N3CC4CC(C3)N4)nc12)C(F)(F)F` (centres unmarked) [Example 255], the IC50 was < 100 nM.
With `NC(=O)COC(c1ccc(-c2nccs2)c2oc(N3CC4CC(C3)N4)nc12)C(F)(F)F` (centres unmarked) [Example 256, 2-(1-(2-(3,6-Diazabicyclo[3.1.1]heptan-3-yl)-7-(thiazol-2-yl)benzo[d]oxazol-4-yl)-2,2,2-trifluoroethoxy)acetamide], the IC50 is < 100 nM.
Regarding `CC(C)(O)C(F)(F)OC(c1ccc(-c2nccs2)c2oc(N3CC4CC(C3)N4)nc12)C(F)(F)F` (centres unmarked) [Example 257, 1-(1-(2-(3,6-Diazabicyclo[3.1.1]heptan-3-yl)-7-(thiazol-2-yl)benzo[d]oxazol-4-yl)-2,2,2-trifluoroethoxy)-1,1-difluoro-2-methylpropan-2-ol], the IC50 is < 100 nM.
In the case of `OCC(F)(F)OC(c1ccc(-c2nccs2)c2oc(N3CC4CC(C3)N4)nc12)C(F)(F)F` (centres unmarked) [Example 258, 2-(1-(2-(3,6-Diazabicyclo[3.1.1]heptan-3-yl)-7-(thiazol-2-yl)benzo[d]oxazol-4-yl)-2,2,2-trifluoroethoxy)-2,2-difluoroethan-1-ol], the IC50 was < 100 nM.
Regarding `C[C@H](O)COc1ccc(-c2nccs2)c2oc(N3CC4CC(C3)N4)nc12` [Example 260, (2S)-1-((2-(3,6-diazabicyclo[3.1.1]heptan-3-yl)-7-(thiazol-2-yl)benzo[d]oxazol-4-yl)oxy)propan-2-ol], the IC50 is < 100 nM.
Regarding `CC(O)COC(c1ccc(-c2nccs2)c2oc(N3CC4CC(C3)N4)nc12)C(F)(F)F` (centres unmarked) [Example 261, 1-(1-(2-(3,6-Diazabicyclo[3.1.1]heptan-3-yl)-7-(thiazol-2-yl)benzo[d]oxazol-4-yl)-2,2,2-trifluoroethoxy)propan-2-ol], the IC50 is < 100 nM.
The same measure for `c1csc(-c2ccc(OC3CCCOC3)c3nc(N4CC5CCC(C4)N5)oc23)n1` (centres unmarked) [Example 262, 2-(3,8-Diazabicyclo[3.2.1]octan-3-yl)-4-((tetrahydro-2H-pyran-3-yl)oxy)-7-(thiazol-2-yl)benzo[d]oxazole]: < 100 nM.
Take `FC(F)Oc1ccc(-c2nccs2)c2oc(N3CC4CCC(C3)N4)nc12` [Example 263, 2-(3,8-Diazabicyclo[3.2.1]octan-3-yl)-4-(difluoromethoxy)-7-(thiazol-2-yl)benzo[d]oxazole]: the IC50 is < 100 nM.
As for `CC(C)(O)COc1ccc(-c2nccs2)c2oc(N3CC4CCC(C3)N4)nc12` [Example 264, 1-((2-(3,8-Diazabicyclo[3.2.1]octan-3-yl)-7-(thiazol-2-yl)benzo[d]oxazol-4-yl)oxy)-2-methylpropan-2-ol], the IC50 is < 100 nM.
In the case of `CC(O)C(F)(F)OC(c1ccc(-c2nccs2)c2oc(N3CC4CC(C3)N4)nc12)C(F)(F)F` (centres unmarked) [Example 265, 1-(1-(2-(3,6-Diazabicyclo[3.1.1]heptan-3-yl)-7-(thiazol-2-yl)benzo[d]oxazol-4-yl)-2,2,2-trifluoroethoxy)-1,1-difluoropropan-2-ol], the IC50 was < 100 nM.
With `N#CC1CC(Oc2ccc(-c3nccs3)c3oc(N4CC5CC(C4)N5)nc23)C1` (centres unmarked) [Example 266, 3-((2-(3,6-Diazabicyclo[3.1.1]heptan-3-yl)-7-(thiazol-2-yl)benzo[d]oxazol-4-yl)oxy)cyclobutane-1-carbonitrile], the IC50 is < 100 nM.
Turning to `CC(C)(O)C1CC(Oc2ccc(-c3nccs3)c3oc(N4CC5CC(C4)N5)nc23)C1` (centres unmarked) [Example 267, 2-(3-((2-(3,6-Diazabicyclo[3.1.1]heptan-3-yl)-7-(thiazol-2-yl)benzo[d]oxazol-4-yl)oxy)cyclobutyl)propan-2-ol], the IC50 was < 100 nM.
The same measure for `CC(C)(CO)Oc1ccc(-c2nccs2)c2oc(N3CC4CC(C3)N4)nc12` [Example 268, 2-((2-(3,6-Diazabicyclo[3.1.1]heptan-3-yl)-7-(thiazol-2-yl)benzo[d]oxazol-4-yl)oxy)-2-methylpropan-1-ol]: < 100 nM; for `OC1(c2cc(-c3nccs3)c3oc(N4CC5CC(C4)N5)nc3c2OC(F)(F)F)CC1` [Example 269, 1-(2-(3,6-Diazabicyclo[3.1.1]heptan-3-yl)-7-(thiazol-2-yl)-4-(trifluoromethoxy)benzo[d]oxazol-5-yl)cyclopropan-1-ol]: < 100 nM; for `CC(O)(c1ccc(-c2nccs2)c2oc(N3CC4CC(C3)N4)nc12)C(F)(F)F` (centres unmarked) [Example 270, 2-(2-(3,6-Diazabicyclo[3.1.1]heptan-3-yl)-7-(thiazol-2-yl)benzo[d]oxazol-4-yl)-1,1,1-trifluoropropan-2-ol]: < 100 nM.
For `CC(O)(c1ccc(-c2nccs2)c2oc(N3CC4CC(C3)N4)nc12)C(F)(F)F` (centres unmarked) [Example 271, 2-(2-(3,6-Diazabicyclo[3.1.1]heptan-3-yl)-7-(thiazol-2-yl)benzo[d]oxazol-4-yl)-1,1,1-trifluoropropan-2-ol], the IC50 is < 100 nM.
For `CC(O)c1cc(-c2nccs2)c2oc(N3CC4CC(C3)N4)nc2c1OC(F)(F)F` (centres unmarked) [Example 272, 1-(2-(3,6-Diazabicyclo[3.1.1]heptan-3-yl)-7-(thiazol-2-yl)-4-(trifluoromethoxy)benzo[d]oxazol-5-yl)ethan-1-ol], the IC50 is < 100 nM.
For `CC(O)c1cc(-c2nccs2)c2oc(N3CC4CC(C3)N4)nc2c1OC(F)(F)F` (centres unmarked) [Example 273, 1-(2-(3,6-Diazabicyclo[3.1.1]heptan-3-yl)-7-(thiazol-2-yl)-4-(trifluoromethoxy)benzo[d]oxazol-5-yl)ethan-1-ol], the IC50 was < 100 nM.
Regarding `OC1(c2cc(-c3nccs3)c3oc(N4CC5CCC(C4)N5)nc3c2OC(F)(F)F)CC1` [Example 274, 1-(2-(3,8-Diazabicyclo[3.2.1]octan-3-yl)-7-(thiazol-2-yl)-4-(trifluoromethoxy)benzo[d]oxazol-5-yl)cyclopropan-1-ol], the IC50 is < 100 nM.
The same measure for `OC(c1cc(-c2nccs2)c2oc(N3CC4CCC(C3)N4)nc2c1OC(F)(F)F)C(F)F` (centres unmarked) [Example 275, 1-(2-(3,8-Diazabicyclo[3.2.1]octan-3-yl)-7-(thiazol-2-yl)-4-(trifluoromethoxy)benzo[d]oxazol-5-yl)-2,2-difluoroethan-1-ol]: < 100 nM.
The same measure for `OC(c1cc(-c2nccs2)c2oc(N3CC4CCC(C3)N4)nc2c1OC(F)(F)F)C(F)F` (centres unmarked) [Example 276, 1-(2-(3,8-Diazabicyclo[3.2.1]octan-3-yl)-7-(thiazol-2-yl)-4-(trifluoromethoxy)benzo[d]oxazol-5-yl)-2,2-difluoroethan-1-ol]: < 100 nM; for `OC(COc1ccc(-c2nccs2)c2oc(N3CC4CC(C3)N4)nc12)C(F)(F)F` (centres unmarked) [Example 277, 3-((2-(3,6-Diazabicyclo[3.1.1]heptan-3-yl)-7-(thiazol-2-yl)benzo[d]oxazol-4-yl)oxy)-1,1,1-trifluoropropan-2-ol]: < 100 nM.
Turning to `FC(F)Oc1ccc(-c2nccs2)c2oc(N3CC4CC(C3)N4)nc12` [Example 278, 2-(3,6-Diazabicyclo[3.1.1]heptan-3-yl)-4-(difluoromethoxy)-7-(thiazol-2-yl)benzo[d]oxazole], the IC50 is < 100 nM.
On to `CC(C)(O)COc1ccc(-c2nccs2)c2oc(N3CC4CC(C3)N4)nc12` [Example 279, 1-((2-(3,6-Diazabicyclo[3.1.1]heptan-3-yl)-7-(thiazol-2-yl)benzo[d]oxazol-4-yl)oxy)-2-methylpropan-2-ol], for which the IC50 is < 100 nM.
For `CC(C)(O)C(C)(C)OC(c1ccc(-c2nccs2)c2oc(N3CC4CC(C3)N4)nc12)C(F)(F)F` (centres unmarked) [Example 280, 3-(1-(2-(3,6-Diazabicyclo[3.1.1]heptan-3-yl)-7-(thiazol-2-yl)benzo[d]oxazol-4-yl)-2,2,2-trifluoroethoxy)-2,3-dimethylbutan-2-ol], the IC50 is < 100 nM.
For the compound `COC(C)(C)COC(c1ccc(-c2nccs2)c2oc(N3CC4CC(C3)N4)nc12)C(F)(F)F` (centres unmarked) [Example 281, 2-(3,6-Diazabicyclo[3.1.1]heptan-3-yl)-7-(thiazol-2-yl)-4-(2,2,2-trifluoro-1-(2-methoxy-2-methylpropoxy)ethyl)benzo[d]oxazole], the IC50 was < 100 nM.
With `COC1(COC(c2ccc(-c3nccs3)c3oc(N4CC5CC(C4)N5)nc23)C(F)(F)F)CC1` (centres unmarked) [Example 282, 2-(3,6-Diazabicyclo[3.1.1]heptan-3-yl)-7-(thiazol-2-yl)-4-(2,2,2-trifluoro-1-((1-methoxycyclopropyl)methoxy)ethyl)benzo[d]oxazole], the IC50 was < 100 nM.
The same measure for `COC1(c2cc(-c3nccs3)c3oc(N4CC5CC(C4)N5)nc3c2OC(F)(F)F)CC1` [Example 283, 2-(3,6-Diazabicyclo[3.1.1]heptan-3-yl)-5-(1-methoxycyclopropyl)-7-(thiazol-2-yl)-4-(trifluoromethoxy)benzo[d]oxazole]: < 100 nM; for `CC(C)(O)COC(c1ccc(-c2cscn2)c2oc(N3CC4CC(C3)N4)nc12)C(F)(F)F` (centres unmarked) [Example 284, 1-(1-(2-(3,6-Diazabicyclo[3.1.1]heptan-3-yl)-7-(thiazol-4-yl)benzo[d]oxazol-4-yl)-2,2,2-trifluoroethoxy)-2-methylpropan-2-ol]: < 100 nM.
`OC1(COC(c2ccc(-c3cscn3)c3oc(N4CC5CC(C4)N5)nc23)C(F)(F)F)CC1` (centres unmarked) [Example 286, 1-((1-(2-(3,6-Diazabicyclo[3.1.1]heptan-3-yl)-7-(thiazol-4-yl)benzo[d]oxazol-4-yl)-2,2,2-trifluoroethoxy)methyl)cyclopropan-1-ol]: the IC50 was < 100 nM.
In the case of `COC(C)(C)c1cc(-c2cscn2)c2oc(N3CC4CC(C3)N4)nc2c1OC(F)(F)F` [Example 287, 2-(3,6-Diazabicyclo[3.1.1]heptan-3-yl)-5-(2-methoxypropan-2-yl)-7-(thiazol-4-yl)-4-(trifluoromethoxy)benzo[d]oxazole], the IC50 is < 100 nM.
Consider `CC(C)(O)c1cc(-c2cscn2)c2oc(N3CC4CC(C3)N4)nc2c1OC(F)(F)F` [Example 288, 2-(2-(3,6-Diazabicyclo[3.1.1]heptan-3-yl)-7-(thiazol-4-yl)-4-(trifluoromethoxy)benzo[d]oxazol-5-yl)propan-2-ol], for which the IC50 is < 100 nM.
